Holding throughout (type): cell-based
One assay concerns Moraxella catarrhalis. The assay is described as follows: MIC in Mueller-Hinton broth, Moraxella catarrhalis. Conditions: Mueller-Hinton broth with hemin and NAD, aerobic, 24 hours, 37° C., 5×10^4 CFU/well. As to the method: (§1) The following results were obtained on a standard in-vitro test system. The activity is described in terms of the minimum inhibitory concentration (MIC) determined by the agar-dilution technique with an inoculum size of 10^4 CFU/spot. Typically, compounds are active in the range 0.01 to 256 μg/ml.
(§2) Streptococci and enterococci were tested on agar supplemented with 5% defibrinated horse blood, an inoculum of 10^4 CFU/spot and an incubation temperature of 37° C., in an atmosphere of 5% carbon dioxide for 48 hours—blood is required for the growth of some of the test organisms. Fastidious Gram negative organisms were tested in Mueller-Hinton broth, supplemented with hemin and NAD, grown aerobically for 24 hours at 37° C., and with an innoculum of 5×10^4 CFU/well.

A further assay relates to Haemophilus influenzae. As to the kind of experiment: MIC in Mueller-Hinton broth, Haemophilus influenzae. Conditions: Mueller-Hinton broth with hemin and NAD, aerobic, 24 hours, 37° C., 5×10^4 CFU/well. As to the method: as §1, §2
The subject of the next assay is Streptococcus pneumoniae. The assay is described as follows: MIC by agar dilution, Streptococcus pneumoniae. Conditions: agar with 5% defibrinated horse blood, 10^4 CFU/spot, 37° C., 5% carbon dioxide, 48 hours. As to the method: as §1, §2
(In agar dilution, organisms are placed on agar that contains the substance at set levels.)

Another assay concerns Enterococcus faecium. The assay is described as follows: MIC by agar dilution, Enterococcus faecium. Conditions: agar with 5% defibrinated horse blood, 10^4 CFU/spot, 37° C., 5% carbon dioxide, 48 hours. How it is done: as §1, §2
Assay [1] has as its system Staphylococcus aureus MSQS (methicillin sensitive and quinolone sensitive). The assay is described as follows: MIC by agar dilution, Staphylococcus aureus MSQS. Conditions: S. aureus MSQS, 10^4 CFU/spot, 37° C., 24 hours. How it is done:
as §1
(§3) Staphylococci were tested on agar, using an inoculum of 10^4 CFU/spot and an incubation temperature of 37° C., for 24 hours—standard test conditions for the expression of methicillin resistance.

Assay [2] concerns Staphylococcus aureus MRQR (methicillin resistant and quinolone resistant). As to the kind of experiment: MIC by agar dilution, Staphylococcus aureus MRQR. Particulars: S. aureus MRQR, 10^4 CFU/spot, 37° C., 24 hours. How it is done: as §1, §3
Assay [3] concerns Linezolid Resistant Streptococcus pneumoniae. As to the kind of experiment: MIC by agar dilution, Linezolid Resistant Streptococcus pneumoniae. Particulars: agar with 5% defibrinated horse blood, 10^4 CFU/spot, 37° C., 5% carbon dioxide, 48 hours. How it is done: as §1, §2

Consider one compound from US20060058317A1, “Oxazolidinone derivatives as antibacterial” (AstraZeneca AB, priority 2002, published 2006).

Converted amounts (≈) assume the structure as drawn.

Consider `Cn1nnc(-c2ccc(-c3ccc(N4C[C@H](COc5ccon5)OC4=O)cc3F)cn2)n1` [Example 1], for which the MIC is 4 µg/mL (≈ 9.15 µM) with Moraxella catarrhalis; 64 µg/mL (≈ 146 µM) against Haemophilus influenzae; 1 µg/mL (≈ 2.29 µM) against Streptococcus pneumoniae; 4 µg/mL (≈ 9.15 µM) against Enterococcus faecium; 4 µg/mL (≈ 9.15 µM) in assay [1]; 4 µg/mL (≈ 9.15 µM) in assay [2]. This compound also showed an MIC in assay [3] of 64 µg/mL (≈ 146 µM).
